We go through 87 compounds from PubChem BioAssay AID463199 (Broad Institute, 2010).

Activity calls are given as the source filed them.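 Rule for the calls: active = AC50, the dose giving half-maximal effect, exceeds a fixed cutoff for a compound that rescues yeast growth under heat; inactive = the rest, inconclusive results apart.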

As usually defined, the AC50 is the concentration at which the activity in the assay is half-maximal.

The subject of this experiment is S. cerevisiae Burl-1 ts mutant growth, BacTiter-Glo, 38.5C 24 h. The experiment is described as follows: restored growth of temperature-sensitive Burl-1 yeast – whole organism, S. cerevisiae, Burl-1 ts mutant, luminescence, counter-screen for SUMOylation pathway inhibitor project, dose response (AID 463199). (A counterscreen serves to expose hits that act by an unwanted route or on another target.)
Take `CCCn1nc(C(=O)NNC(=O)c2cc(S(=O)(=O)NC)ccc2Br)c2ccccc2c1=O`: the AC50 was > 42 µM (inactive).
With `Cc1c(O)ccc(C(=O)CN2C(=O)c3ccccc3C2=O)c1O` the figure was > 42 µM (inactive).
With `COc1cc2c(cc1OC)C(c1ccc(SC)cc1)CC(=O)N2` (configuration not stated) the figure was > 42 µM (inactive).
For the compound `CC(C)(C)NC(=S)NCc1cccnc1`, the AC50 is > 42 µM (inactive).
For the compound `CC(C)(C)C(=O)NC1CCN(CC(=O)Nc2ccc3c(c2)OCO3)CC1`, the AC50 was > 42 µM (inactive).
With `Clc1ccccc1C(c1ccccc1)(c1ccccc1)n1ccnc1` the figure was > 42 µM (inactive); with `CCC(Cc1ccccc1)NC(=O)C1CCN(c2nn3c(=O)cc(C)nc3s2)CC1` (configuration not stated), > 42 µM (inactive); with `Cc1cc(C)cc(N2C(=O)CC(Sc3ncn[nH]3)C2=O)c1` (configuration not stated), > 42 µM (inactive).
Regarding `COc1ccc(-c2oc3ccc(-c4cc(OC)c(OC)c(OC)c4)cc3c2C(=O)c2ccc(OC)nc2)cc1`, the AC50 is > 42 µM (inactive).
For `CC1(C)CC(=O)C2=C(C1)Oc1ncn(CCO)c(=N)c1C2c1ccccc1` (configuration not stated), the AC50 is > 42 µM (inactive).
As for `O=C(NCCCn1ccnc1)Nc1cccc2ccccc12`, the AC50 is > 42 µM (inactive).
Take `O=C1C2CCCCN2C(=O)N1CCCCN1CCN(c2ccccc2Oc2ccccc2)CC1` (configuration not stated): the AC50 is > 42 µM (inactive).
With `COc1ccc(NC2CC(=O)N(C(C)C)C2=O)cc1` (configuration not stated) the figure was > 42 µM (inactive); with `Cc1n[nH]c(=O)nc1NCc1ccc(Cl)cc1`, > 42 µM (inactive); with `CS(=O)(=O)N1CCCC(C(=O)Nc2ccc(F)cc2F)C1` (configuration not stated), > 42 µM (inactive).
For the compound `CC1CN(C(=O)c2cc([N+](=O)[O-])cc([N+](=O)[O-])c2)CC(C)O1` (configuration not stated), the AC50 was > 42 µM (inactive).
On to `COc1ccccc1N1CCN(C(=O)c2ccc(N3CCCCS3(=O)=O)cc2)CC1`, for which the AC50 is > 42 µM (inactive).
With `CCOc1ccc(C(=O)c2cccs2)cc1` the figure was > 42 µM (inactive); with `CCn1cc(C(=O)NCc2ccccn2)c(=O)c2cc(F)c(N3CCN(C)CC3)cc21`, > 42 µM (inactive); with `[N-]=[N+]=NCCN1CCC(O)CCC1=O` (configuration not stated), > 42 µM (inactive).
With `CN1C2CCC1CC(OC(=O)c1ccc([N+](=O)[O-])cc1)C2` (configuration not stated) the figure was > 42 µM (inactive).
With `COc1ccc(-c2cc(=O)c3cc(O)ccc3o2)cc1` the figure was > 42 µM (inactive).
`CN(Cc1cccnc1)Cc1cn[nH]c1-c1ccc(-c2ccccc2)cc1`: the AC50 was > 42 µM (inactive).
For the compound `CCOc1ccc(N(CC)S(=O)(=O)c2cccc3nsnc23)cc1`, the AC50 was > 42 µM (inactive).
With `CCOC(=O)/C(C#N)=C\c1ccc(CC)s1` the figure was > 42 µM (inactive).
With `c1ccc2c(c1)[nH]c1c(N3CCN(C4CCCCC4)CC3)ncnc12`, the AC50 is 39.8 µM.
Regarding `COc1ccccc1NC(=S)N(Cc1ccccc1)Cc1cccs1`, the AC50 was > 42 µM (inactive).
As to `Cc1c(Cl)c([N+](=O)[O-])nn1CC(=O)NC12CC3CC(CC(C3)C1)C2`, the AC50 was > 42 µM (inactive).
Take `O=C(CCSc1ccccc1)Nc1ncccn1`: the AC50 is > 42 µM (inactive).
Turning to `Cc1cc2ncc(C(=O)N=CN(C)C)cn2n1`, the AC50 is > 42 µM (inactive).
With `COc1ccc(C(C)=O)cc1CN(c1ccccc1OC)S(=O)(=O)c1cccs1` the figure was > 42 µM (inactive); with `COc1ccc(N2CC(C(=O)N3CCc4ccccc43)CC2=O)cc1` (configuration not stated), > 42 µM (inactive); with `CNS(=O)(=O)c1cccc(C(=O)OCC(=O)Nc2ccc(OC)cc2[N+](=O)[O-])c1`, > 42 µM (inactive).
Regarding `COc1cc(/C=N/NC2=NS(=O)(=O)c3ccccc32)cc(OC)c1OC`, the AC50 was > 42 µM (inactive).
Turning to `CSc1nc2ccc(NC(=O)c3c(F)cccc3F)cc2s1`, the AC50 was > 42 µM (inactive).
Consider `CN(C)CCNC(=O)c1scc2c1CCCC2`, for which the AC50 is > 42 µM (inactive).
With `Cc1cc(Oc2cc(NN3CCCCC3)c([N+](=O)[O-])cc2[N+](=O)[O-])ccc1[N+](=O)[O-]` the figure was > 42 µM (inactive).
With `Cc1sc2nc(CN3CCCC3)nc(NCc3ccncc3)c2c1C` the figure was > 42 µM (inactive).
With `COc1cc(-c2nnc(SCC#CCO)o2)cc(OC)c1OC` the figure was > 42 µM (inactive); with `CC1CCCC(N2C(=O)NC(NC(=O)c3ccco3)(C(F)(F)F)C2=O)C1C` (configuration not stated), > 42 µM (inactive); with `N/C(=N\OC(=O)CCC1CCCC1)c1ccc([N+](=O)[O-])cc1`, > 42 µM (inactive).
In the case of `CC1C(=O)CC(c2ccccc2)N(C)C1c1ccccc1` (configuration not stated), the AC50 is > 42 µM (inactive).
Consider `CCC1C(c2ccccc2)NC(c2ccccc2)CC1(O)c1ccc(F)cc1` (configuration not stated), for which the AC50 was > 42 µM (inactive).
As to `Cc1ccc(-c2nc3c(=O)n(-c4ccccc4)c4c(c(=O)n(C)c(=O)n4C)c3o2)cc1`, the AC50 is > 42 µM (inactive).
Consider `Cc1nc2ccccc2n(CC(=O)Nc2cc(Cl)cc(Cl)c2)c1=O`, for which the AC50 is > 42 µM (inactive).
For the compound `CCc1cccc(C)c1NC(=O)CSc1nnc(-c2cc3cc(Br)ccc3o2)n1CC`, the AC50 is > 42 µM (inactive).
With `O=C(CCCn1cnc([N+](=O)[O-])n1)Nc1cccc2ccccc12`, the AC50 was > 42 µM (inactive).
With `Cc1ccc(NC(=O)NNC(=O)Cn2nc(-c3ccccc3)c(-c3ccccc3)c(C#N)c2=O)cc1` the figure was > 42 µM (inactive); with `COC(=O)[C@@]12CCCCN1[C@H](c1ccc(-c3cccc(Cl)c3)c(OC)c1)[C@H]1C(=O)N(C)C(=O)[C@H]12`, > 42 µM (inactive); with `CCCn1c(N)cc(=O)n(CCC)c1=O`, > 42 µM (inactive).
With `Cc1ccc2cccc(OCc3nnc(SCC(=O)O)n3C)c2n1` the figure was > 42 µM (inactive); with `O=C(c1ccco1)N1CCN(CC(=O)N2c3ccccc3CCc3ccccc32)CC1`, > 42 µM (inactive); with `Cc1cc(/C=C2\C(=O)NC(=O)N(c3ccccc3F)C2=O)c(C)n1-c1cc(C(=O)O)cc(C(=O)O)c1`, > 42 µM (inactive).
With `CCN1C(=NCCCCO)N[C@@H](c2cccc(C(F)(F)F)c2)C(C(=O)OC)=C1C` the figure was > 42 µM (inactive); with `CO/N=C/c1ccc(Oc2ccc(C)cc2)nc1`, > 42 µM (inactive); with `O=S(=O)(c1ccc(S(=O)(=O)N2CCCC2)cc1)N1CCCCC1`, > 42 µM (inactive).
Turning to `Cc1sc2ncn(C(C)C(=O)OC3CCCCC3)c(=O)c2c1C` (configuration not stated), the AC50 is > 42 µM (inactive).
With `CC(=O)Oc1cccc(N2C(=O)c3ccc(C(=O)Nc4c[nH]c(=O)[nH]c4=O)cc3C2=O)c1` the figure was > 42 µM (inactive).
In the case of `COc1ccc(CN(CC(=O)NCc2ccco2)C(=O)CCC(=O)Nc2nccs2)cc1`, the AC50 was > 42 µM (inactive).
As to `COc1cc2c(=O)n(-c3ccc(C)cc3)c(=O)n(CC(=O)c3ccc4c(c3)OCO4)c2cc1OC`, the AC50 was > 42 µM (inactive).
With `COc1ccc2c(c1)[C@H]1[C@H](CO2)[C@H](c2ccccc2)[C@]2(C)C(=O)Nc3ccc(C)cc3C(=O)N12` the figure was > 42 µM (inactive).
For `CN(Cc1ccccc1)c1ccc(S(=O)(=O)N2CCC(C(=O)O)CC2)cc1[N+](=O)[O-]`, the AC50 is > 42 µM (inactive).
In the case of `CCCCn1c(N)c(N(CCOC)C(=O)c2cnccn2)c(=O)[nH]c1=O`, the AC50 was > 42 µM (inactive).
For the compound `Cc1sc2nc(N)sc2c1C`, the AC50 is > 42 µM (inactive).
In the case of `COCC(=O)NNC(=O)c1ccccc1OC`, the AC50 was > 42 µM (inactive).
As for `O=C(CCCc1nc(-c2ccc(Cl)cc2)no1)NC1CCCCC1`, the AC50 is > 42 µM (inactive).
For the compound `Cc1ccc(CC(=O)O/N=C(\N)c2cccc([N+](=O)[O-])c2)cc1`, the AC50 was > 42 µM (inactive).
With `Cc1ccc(C(=O)NNc2ncnc3c2cnn3C)cc1` the figure was > 42 µM (inactive).
With `COc1ccc2c(Cl)c(C(=O)NN3CCN(C)CC3)sc2c1` the figure was > 42 µM (inactive); with `O=C(CSc1nccc(=O)[nH]1)c1cc2ccccc2o1`, > 42 µM (inactive).
With `CC1=CC2=NC(=O)/C(=C\c3cc(C)n(-c4ccccc4)c3C)C(=N)N2O1` the figure was > 42 µM (inactive).
Turning to `O=C(c1ccccc1F)N1CCCc2ccccc21`, the AC50 is > 42 µM (inactive).
`COc1ccc(N2CCN(C3CCCN(Cc4cccc(OC)c4)C3)CC2)cc1` (configuration not stated): the AC50 is > 42 µM (inactive).
For `Cc1nn(C)c(C)c1/C=N/NC(=O)C(C)(C)Oc1ccc(Cl)cc1`, the AC50 was > 42 µM (inactive).
Consider `c1ccc2cc(Cn3ccnc3)ccc2c1`, for which the AC50 was > 42 µM (inactive).
Turning to `COc1cccc(-c2ocnc2C(=O)Nc2ccc3c(c2)CCC3)c1`, the AC50 is > 42 µM (inactive).
Regarding `C[C@@]12C(=O)Nc3ccc(F)cc3C(=O)N1[C@H]1c3ccccc3OC[C@@H]1[C@@H]2c1ccccc1`, the AC50 was > 42 µM (inactive).
With `C[C@@]12C(=O)Nc3ccc(F)cc3C(=O)N1[C@H]1c3cc(Cl)ccc3OC[C@@H]1[C@@H]2c1ccccc1` the figure was > 42 µM (inactive); with `COc1ccc(NC(=O)c2ccc(-n3cncn3)c([N+](=O)[O-])c2)cc1`, > 21 µM (inactive); with `O=[N+]([O-])c1c(NCCCO)cc(Sc2nc3ccccc3s2)c2nonc12`, > 42 µM (inactive).
With `Cc1nc(CC(=O)N/N=C/c2ccc(OCC(=O)O)cc2)cs1` the figure was > 42 µM (inactive).
With `N#Cc1ccc2[nH]c(CO)c(-c3ccccc3)c2c1` the figure was > 42 µM (inactive).
For the compound `COc1ccccc1NC(=O)c1nn(-c2cccc(C(F)(F)F)c2)ccc1=O`, the AC50 was 12 µM.
With `O=C(COc1ccccc1Cl)c1ccc[nH]1` the figure was > 42 µM (inactive); with `O=S(=O)(c1ccccc1)N1CCN(c2nc3ccccc3s2)CC1`, > 42 µM (inactive); with `CSc1ccc(CCNC(=O)C2CCCN(S(=O)(=O)N3CCOCC3)C2)cc1` (configuration not stated), > 42 µM (inactive).
With `CC(NC(=O)C1CCCCC1)C(=O)NC1=NCCS1` (configuration not stated) the figure was > 42 µM (inactive).
